Patent publication US20240415790A1, “A COMPOSITION FOR USE IN THE TREATMENT OF INTERVERTEBRAL DISC HERNIATION” (STAYBLE THERAPEUTICS AB, priority 2020, published 2024)
“And” between values parts separate entries of the source, which are not always exact repeats. Equal values may be shown once.

Tests used:
collagen II = assay: Immunohistochemical analysis of collagen II in porcine IVD; type: in vivo; details: pig, LA 60 mg/mL, treated vs untreated IVDs
Procedure: Since effects of LA on the NP in the subsequent clinical study was planned to be assessed using MRI, the third series focused on the effects of LA (0.2 mL, 60 mg/mL) on sclerotization as measured by T2-weighted MRI. In addition, effects of LA on the expression of collagen I and II were studied by immunohistochemistry (IHC). The macroscopic changes after LA at 60 mg/mL were similar to those described above. The tissue was dehydrated in graded ethanol and embedded in paraffin. Sections were cut on a microtome, dewaxed, and incubated with polyclonal primary antibodies against collagen I (Abcam 34710) or II (Abcam 34712). The antibodies were diluted 250 (collagen I) or 200 (collagen II) times in phosphate-buffered saline containing 1% bovine serum albumin. Incubation was done at room temperature for 60 min. The sections were then incubated for 30 min at room temperature with horseradish peroxidase-conjugated secondary antibodies (Mach 2 Uni HRP, Biocare Medical) and immunoreactivity was visualized using diaminobenzidine (Biocare Medical).

porcine IVD = assay: T2-weighted MRI and photographs of porcine IVD after LA (series 3), disc height and width; type: in vivo; details: pig
Procedure: Since effects of LA on the NP in the subsequent clinical study was planned to be assessed using MRI, the third series focused on the effects of LA (0.2 mL, 60 mg/mL) on sclerotization as measured by T2-weighted MRI. In addition, effects of LA on the expression of collagen I and II were studied by immunohistochemistry (IHC). […] MR images were obtained using a 7T small animal MRI system (Bruker Biospec). A single 50 mm volume coil array was used (Tx/Rx). The dissected spines were stripped of the attached muscles, the spinous processes, transverse processes, and posterior aspects of the facet joints to allow them to fit in the MRI system. T2-weighted (TR: 2500-2834 ms, TE: 33-35.84 ms), 2D TurboRARE transversal and sagittal sequences were used. The TR and TE could not be maintained the same for all sequences due to required adjustments in field of view the different specimens, leading to an increased pixel matrix which affected the TR and TE. For the transverse sequences, a 500 μm slice thickness with 750 μm interslice distance and an in-plane resolution of 166×166 μm was used. For the sagittal sequences, a 750 μm slice thickness with 2000 μm interslice distance and an in-place resolution of 166×166 μm was used. […] Images were analyzed using Sante DICOM Viewer (version 8.1.5, Santesoft, Athens, Greece). The treated IVDs in all animals were assessed, and the IVD one level above the treated IVD was scanned as control. The size of the NP was quantified using both MR images and photographs of the IVDs (see FIG. 6). The results from the macroscopic and MR analyses were then correlated. […] The relative disc height was expressed as a ratio of height of treated IVD/height of untreated (control) IVD. Analogously, the relative disc width was expressed as a ratio of width of treated IVD/width of untreated (control) IVD.

[1] = tested on: patients with chronic discogenic low back pain; assay: Clinical study, exploratory VAS back and leg pain and ODI; type: in vivo, human
Excerpt: Scoring of visual analog scale (VAS) for both back and leg pain and Oswestry Disability Index (ODI) were used as exploratory objectives. The sample size was not based on power calculations but was considered appropriate for a single ascending dose study to provide initial safety data on 3 different dose levels of the LA formulation. The study has been registered on the ClinicalTrials.gov website and on the EU Clinical Trials Register. It was approved by the Stockholm Regional Ethics Committee (approval No. 2016-2323-31/4) and by the Swedish Medical Products Agency (approval No. 5.1-2016-86227).
Disability was evaluated using the ODI.

[2] = individual animals 1-5, LA 0.2 mL 60 mg/mL
[3] = mean of 5 animals, LA 0.2 mL 60 mg/mL

Structure (SMILES): CC(O)C(=O)O (stereo not shown) [LA, lactic acid]
- Collagen II immunoreactivity (collagen II): no clear difference
- Height of the treated IVD on MR image (FIG. 12) (porcine IVD; 60 mg/ml LA, 30 days prior to the image, vs untreated control IVD): significant reduction in height
- T2-weighted MRI intensity of the sclerotized NP (porcine IVD; LA 60 mg/mL): much lower
- Relative disc height (treated IVD/untreated control IVD) (porcine IVD; [2]): 0.55 and 0.2 and 0.33 and 0.7 and 0.36
- Relative disc width (treated IVD/untreated control IVD) (porcine IVD; [2]): 1 and 1.01 and 0.99 (2×) and 1.04
- Relative disc height, mean value (porcine IVD; [3]): 0.43
- Relative disc width, mean value (porcine IVD; [3]): 1.01
- Leg pain (VAS) at baseline ([1]; 45 mg group, baseline): no leg pain
- Mean leg pain at screening ([1]; 90 mg group): 3 mm
- Mean leg pain at screening ([1]; 180 mg group): 14 mm
- VAS (mm) for cLBP, Mean (SD) ([1]; LA 45 mg, Visit 1 (Screening), baseline): 19 mm and 19 (10) mm
- VAS (mm) for cLBP, Mean (SD) ([1]; LA 45 mg, Visit 5 (3 months)): 22 (8) mm
- VAS (mm) for cLBP, Mean (SD) ([1]; LA 45 mg, Visit 6 (6 months)): 52 (28) mm
- VAS (mm) for cLBP, Mean (SD) ([1]; LA 45 mg, Visit 7 (12 months)): 59 (40) mm
- VAS (mm) for cLBP, Mean (SD) ([1]; LA 90 mg, Visit 1 (Screening), baseline): 44 mm and 44 (25) mm
- VAS (mm) for cLBP, Mean (SD) ([1]; LA 90 mg, Visit 5 (3 months)): 44 (22) mm
- VAS (mm) for cLBP, Mean (SD) ([1]; LA 90 mg, Visit 6 (6 months)): 44 (6) mm
- VAS (mm) for cLBP, Mean (SD) ([1]; LA 90 mg, Visit 7 (12 months)): 34 (14) mm
- VAS (mm) for cLBP, Mean (SD) ([1]; LA 180 mg, Visit 1 (Screening), baseline): 52 mm and 52 (18) mm
- VAS (mm) for cLBP, Mean (SD) ([1]; LA 180 mg, Visit 5 (3 months)): 27 (15) mm
- VAS (mm) for cLBP, Mean (SD) ([1]; LA 180 mg, Visit 6 (6 months)): 28 (32) mm
- VAS (mm) for cLBP, Mean (SD) ([1]; LA 180 mg, Visit 7 (12 months)): 61 (26) mm
